Measured values taken from US8486464B2, “Herbal composition for angina pectoris, method to prepare same and uses thereof” (Tasly Pharmaceutical Group Co. Ltd., priority 2000, dated 2013).
Where two headings read alike, the source gives them in different places.

Experiments:
[1] = cited from earlier work
[2] = test system: polychromatic RBCs; experiment: Micronucleus rates in mice; assay type: in vivo; conditions: 80 mg/kg; 24 hrs
[3] = test system: thrombosis, platelet aggregation, coagulation; conditions: single injection of 20 mg/kg; cited from earlier work
[4] = test system: hemicrania; experiment: Hemicrania, DSP vs Flunarizine; assay type: in vivo, human; conditions: 8 weeks
Procedure: (2) Effects on hemicrania 58 patients with hemicrania were selected from clinics. They all qualify under International Headache Standards classifications. 10 tablets of DSP (25 mg/tablet) were given to the Treatment group, 3 times/day. 5 mg of Flunarizine was given to the control group, once a day, orally. The medication lasted 8 weeks. Treatment results and side effects were recorded every 2 weeks. No other pain-killing medications were taken within the 6 months.
Treatment standards. Controlled: Headaches disappeared with medication, and there was no reoccurrence after treatment ended; Obvious efficacy: The seriousness of headaches is reduced, duration is shortened, and onset frequency is reduced to 75% or more; Efficacy: The level of headache is reduced, and onset frequency is reduced 50%˜70%; Failure: No improvement in headaches.

[5] = cited from earlier work; remark: listed apart in the source
[6] = test system: hemorheology; experiment: Chronic pulmonary heart disease: hemorheologic markers; assay type: in vivo, human
Description: (§1) 90 cases of chronic pulmonary heart disease were selected based on the diagnosis standard set up during the National Pulmonary Heart Disease Congress in 1977. The patients were divided randomly into an Observation group and a Control group. The 60 cases in the Observation group took DSP, while the 30 cases in the Control group took persantin. Based on the objectives of: reduced inflammation, coughing cessation, dissolving of sputum, cardial and diuretic action, and cardiac function improvement, the Observation group was given 10 grains of DSP, 3 times a day. The Control group was given 50 mg of Poon Seng Ding each time, 3 times a day. Treatment lasted 1 month.

[7] = test system: chronic pulmonary heart disease; experiment: Chronic pulmonary heart disease, DSP vs persantin: efficacy; assay type: in vivo, human; conditions: 1 month
Description: as §1
(1) Obvious Efficacy. The symptoms such as coughing, asthma, pulmonary rales, syanosis were relieved or disappeared. The ascites and lower limbs sdema were disappeared as well. Heartbeat was under 100 times/min and cardiac function was improved above grade I-II. The urine volume per day increased by 600 ml and above, while the body weight decreased by 4%. The end-brush circulations were improved.
(3) Inefficacy. Above all markers were not improved.

3H-Borneol [Example 3H-Borneol]
diminishing half-lifetime ([1]; oral administration): 5.3 h
half-life time ([1]; single intraveneous injection): 2.8 min

O=P1(N(CCCl)CCCl)NCCCO1 (stereo not drawn) [CP]
Micro-rates (%) [2]: 23.0 ± 4.0 %
Micronucleus Cells [2]: 138

O=C(O)[C@H](O)Cc1ccc(O)c(O)c1 [Danshensu, D(+)-3,4-dihydroxyphenyl lactic acid]
duration of effect [3]: 1 h
time of peak effect [3]: 30 min

Fc1ccc(C(c2ccc(F)cc2)N2CCN(C/C=C/c3ccccc3)CC2)cc1 [Flunarizine]
Controlled, number of cases [4]: 5
Efficacy, number of cases [4]: 7
Failure, number of cases [4]: 9
Obvious efficacy, number of cases [4]: 7
total efficacy [4]: 67.86%

Cc1nc(C)c(C)nc1C.O=P(O)(O)O [TMP, tetramethylpyrazine phosphate]
Cmax ([5]; TMP 5 mg/kg ig with previous borneol 5 mg/kg): 931 ng/mL
Cmax ([5]; TMP 5 mg/kg ig without borneol): 562 ng/mL

OCCN(CCO)c1nc(N2CCCCC2)c2nc(N(CCO)CCO)nc(N3CCCCC3)c2n1 [persantin]
Aggregation rate of platelet ([6]; After treatment, 1 month): 32.28 ± 20.30%
Blood viscosity ([6]; After treatment, 1 month): 3.66 ± 0.58
Fibrinogen ([6]; After treatment, 1 month): 3.60 ± 0.23 g/L
Hematocrit ([6]; After treatment, 1 month): 0.37 ± 0.05 VOL/%
Aggregation rate of platelet ([6]; before treatment): 4.16 ± 2.32%
Blood viscosity ([6]; before treatment): 4.35 ± 0.81
Fibrinogen ([6]; before treatment): 4.22 ± 0.34 g/L
Hematocrit ([6]; before treatment): 0.48 ± 0.05 VOL/%
Efficacy, number of cases [7]: 9
Efficacy, rate [7]: 0.3
Obvious efficacy, number of cases [7]: 14
Obvious efficacy, rate [7]: 0.47
Total efficacy rate [7]: 0.76
Total efficacy, number of cases [7]: 23
inefficacy, number of cases [7]: 7
inefficacy, rate [7]: 0.23
Total efficacy rate ([7]; 60 DSP, 30 persantin): 76%
